{
  "source": "patent US12629355B2",
  "about": "“Drug inhibitor against migration and invasion of cancer cells and methods of treating against metastasis of cancer cells” (HOWARD UNIVERSITY, priority 2019, dated 2026)",
  "tested_on": "U251 cells",
  "test": "Transwell invasion assay (FIG. 10)",
  "format": "cell-based",
  "settings": "serum free media with TGF in upper chamber, about 14 hours",
  "procedure": "A transwell assay is conducted as a means for testing for invasion. A transwell invasion assay can be used to test the invasive potential of cells in response migration inducers or inhibitors. This assay is also known as modified Boyden chamber assay. During this assay, cells are placed on the upper layer of a cell culture insert with permeable membrane and a solution containing the test agent is placed below the cell permeable membrane. Following an incubation period (3-18 hours) at 37° C. in a humidified chamber, the cells that have stuck during the migration towards the lower chamber through the membrane are stained and counted. […] Collectively, these findings (as shown in FIG. 9 and FIG. 10) indicate that administering a representative compound (SD 29-14) played a significant functional role in the regulation of U251 glioma cell migration and invasion.\nIn measuring cell invasion, 12-well transwell chambers (Corning Inc., Kennebunk, ME) were used with 6.5 mm inserts and 8.0 μm membrane pore size. […] Invasive cells on the bottom surface were fixed with 4% paraformaldehyde for 15 min and stained with 0.2% crystal violet for 15 minutes and the cells were counted and photographed under a light microscope.",
  "data": [
    {"smiles": "Nn1c(S)nnc1-c1cc(Cl)cc(Cl)c1", "note": "[SD 29-14]", "values": [
      {"measurement": "cells on the membrane (invasion)", "result": "hardly any cells were observed on the membrane"}
    ]}
  ]
}
